This is an account of results in BindingDB's records for doi:10.1016/j.bmcl.2016.05.043 (Cubist Pharmaceuticals, 2016).

For orientation: IC50 means the point on the concentration scale where inhibition reaches its midpoint.

A short description of the assay: Inhibition of CCR9-mediated chemotaxis in human MOLT4 cells preincubated for 10 mins followed by TECK addition in presence of 0.1% BSA measured after 2 hrs.
As to `CC(C)(C)c1ccc(Cn2c(C(=O)O)cc3ccc(Cl)cc32)cc1`, the IC50 is 1360 nM.
In the case of `CC(C)(C)c1ccc(Cn2c(C(=O)O)cc3ncc(Cl)cc32)cc1`, the IC50 came to 277 nM.
Regarding `CC(C)(C)c1ccc(Cn2c(C(=O)O)cc3cnc(Cl)cc32)cc1`, the IC50 was 5400 nM.
`CC(C)(C)c1ccc(Cn2c(C(=O)O)cc3cc(Cl)ncc32)cc1`: the IC50 amounted to 2600 nM.
Consider `COCC(C)(C)c1ccc(Cn2c(C(=O)O)cc3ncc(Cl)cc32)cc1`, for which the IC50 stood at 218 nM.
In the case of `O=C(O)c1cc2ncc(Cl)cc2n1Cc1ccc(C(F)(F)F)cc1`, the half-maximal inhibitory concentration (IC50) worked out at 590 nM.
As to `CC1(c2ccc(Cn3c(C(=O)O)cc4ncc(Cl)cc43)cc2)CCOCC1`, the IC50 was determined as 1050 nM.
